# pIC50, pKi: −log10 of the molar value.
# Assays:
# [1] = Metabolic stability in human liver microsomes assessed as parent compound remaining at 0.5 uM incubated for 10 mins in presence of NADPH by LC-MS/MS analysis; assay type: ADME, Microsome; conditions: read-out: Stability
# [2] = Brain concentration in STZ-induced diabetic peripheral neuropathic mechanical allodynia in overnight fasted Sprague-Dawley rat at 1 mg/kg, po measured at 5.5 hrs post dose; assay type: ADME, organism-based; conditions: read-out: Ct
# [3] = biological target: AP2-associated protein kinase 1 (Mus musculus, UniProt Q3UHJ0); test: Displacement of 3H-LP-927443 from AAK1 in C57BL6 mouse brain homogenate assessed as inhibition constant incubated for 1 hr by liquid scintillation counter analysis; assay type: tissue-based
# Rattus norvegicus [4] = test: Analgesic activity in CCI induced thermal hyperalgesia in Sprague-Dawley rat assessed as reduction in thermal hyperalgesia by measuring paw withdrawal latency at 1 mg/kg, po measured after 5 hrs by Hargreaves test relative to control; assay type: functional; parameters: scale not given: the % may be the effect or the level left
# [5] = Drug concentration in STZ-induced diabetic peripheral neuropathic mechanical allodynia in overnight fasted Sprague-Dawley rat spinal cord at 1 mg/kg, po measured after 5.5 hrs; assay type: ADME, organism-based; conditions: read-out: Ct
# Rattus norvegicus [6] = test: Analgesic activity in STZ-induced diabetic peripheral neuropathic mechanical allodynia in overnight fasted Sprague-Dawley rat assessed as reduction in pain response by measuring paw withdrawal latency at 1 mg/kg, po measured after 5 hrs by Hargreaves test relative to control; assay type: functional; parameters: scale not given: the % may be the effect or the level left
# [7] = Ratio of drug concentration in brain to plasma in Sprague-Dawley rat at 3 mg/kg, po measured at 2 hrs post dose; assay type: ADME, organism-based
# [8] = biological target: T1, AP2-associated protein kinase 1 (Homo sapiens, UniProt Q2M2I8); test: Inhibition of bacterially expressed GST-Xa-tagged human AAK1 using 5-FAM-labelled Aha-KEEQSQITSQVTGQIGWR-NH2 peptide as substrate incubated for 3 hrs in presence of ATP by electrophoretic analysis
# Cytochrome P450 3A4 = Cytochrome P450 3A4 (Homo sapiens, UniProt P08684); test: Inhibition of CYP3A4 (unknown origin) incubated for 10 mins in presence of NADPH by LC-MS/MS analysis; assay type: ADME
# [9] = Brain concentration in CCI induced thermal hyperalgesia in Sprague-Dawley rat at 1 mg/kg, po measured at 5.5 hrs post dose; assay type: ADME, organism-based; conditions: read-out: Ct
# [10] = Ratio of drug concentration in brain to plasma in CCI induced thermal hyperalgesia in Sprague-Dawley rat at 1 mg/kg, po measured at 5.5 hrs post dose; assay type: ADME, organism-based
# [11] = Ratio of drug concentration in spinal cord to plasma in CCI induced thermal hyperalgesia in Sprague-Dawley rat at 1 mg/kg, po measured at 5.5 hrs post dose; assay type: ADME, organism-based
# [12] = biological target: T1, AP2-associated protein kinase 1; test: Inhibition of full length human AAK1 expressed in HEK293F cells assessed as suppression of AP2 phosphorylation measured after 3 hrs by Western blot analysis based cellular assay; assay type: cell-based
# [13] = Ratio of drug concentration in spinal cord to plasma in STZ-induced diabetic peripheral neuropathic mechanical allodynia in overnight fasted Sprague-Dawley rat at 1 mg/kg, po measured at 5.5 hrs post dose; assay type: ADME, organism-based
# [14] = Ratio of drug concentration in brain to plasma in STZ-induced diabetic peripheral neuropathic mechanical allodynia in overnight fasted Sprague-Dawley rat at 1 mg/kg, po measured at 5.5 hrs post dose; assay type: ADME, organism-based
# [15] = Plasma concentration in CCI induced thermal hyperalgesia in Sprague-Dawley rat at 1 mg/kg, po measured at 5.5 hrs post dose; assay type: ADME, organism-based
# [16] = Metabolic stability in rat liver microsomes assessed as parent compound remaining at 0.5 uM incubated for 10 mins in presence of NADPH by LC-MS/MS analysis; assay type: ADME, Microsome; conditions: read-out: Stability
# [17] = Plasma concentration in STZ-induced diabetic peripheral neuropathic mechanical allodynia in overnight fasted Sprague-Dawley rat at 1 mg/kg, po measured at 5.5 hrs post dose; assay type: ADME, organism-based
# [18] = Drug concentration in CCI induced thermal hyperalgesia in Sprague-Dawley rat spinal cord at 1 mg/kg, po measured after 5.5 hrs; assay type: ADME, organism-based; conditions: read-out: Ct
# [19] = Metabolic stability in mouse liver microsomes assessed as parent compound remaining at 0.5 uM incubated for 10 mins in presence of NADPH by LC-MS/MS analysis; assay type: ADME, Microsome; conditions: liver microsomes, read-out: Stability
# [20] = biological target: Rho-associated protein kinase 2 (Homo sapiens, UniProt O75116); test: Inhibition of ROCK2 (unknown origin)
# [21] = Cardiotoxicity in aortic ring (unknown origin) assessed as relaxation of phenylephrine induced aortic ring contraction at 10 uM incubated for 1 hr; assay type: toxicity, tissue-based, Aorta; parameters: scale not given: the % may be the effect or the level left; conditions: human
# [22] = biological target: Myosin light chain kinase 2, skeletal/cardiac muscle (Homo sapiens, UniProt Q9H1R3); test: Inhibition of MYLK2 (unknown origin)
# [23] = biological target: TRAF2 and NCK-interacting protein kinase (Homo sapiens, UniProt Q9UKE5); test: Inhibition of TNIK (unknown origin)
# [24] = biological target: MAP kinase-interacting serine/threonine-protein kinase 1 (Homo sapiens, UniProt Q9BUB5); test: Inhibition of MNK1 (unknown origin)
# [25] = biological target: T2, Cyclin-G-associated kinase (Homo sapiens, UniProt O14976); test: Inhibition of GAK (unknown origin)
# T2 sequence (O14976 whole entry): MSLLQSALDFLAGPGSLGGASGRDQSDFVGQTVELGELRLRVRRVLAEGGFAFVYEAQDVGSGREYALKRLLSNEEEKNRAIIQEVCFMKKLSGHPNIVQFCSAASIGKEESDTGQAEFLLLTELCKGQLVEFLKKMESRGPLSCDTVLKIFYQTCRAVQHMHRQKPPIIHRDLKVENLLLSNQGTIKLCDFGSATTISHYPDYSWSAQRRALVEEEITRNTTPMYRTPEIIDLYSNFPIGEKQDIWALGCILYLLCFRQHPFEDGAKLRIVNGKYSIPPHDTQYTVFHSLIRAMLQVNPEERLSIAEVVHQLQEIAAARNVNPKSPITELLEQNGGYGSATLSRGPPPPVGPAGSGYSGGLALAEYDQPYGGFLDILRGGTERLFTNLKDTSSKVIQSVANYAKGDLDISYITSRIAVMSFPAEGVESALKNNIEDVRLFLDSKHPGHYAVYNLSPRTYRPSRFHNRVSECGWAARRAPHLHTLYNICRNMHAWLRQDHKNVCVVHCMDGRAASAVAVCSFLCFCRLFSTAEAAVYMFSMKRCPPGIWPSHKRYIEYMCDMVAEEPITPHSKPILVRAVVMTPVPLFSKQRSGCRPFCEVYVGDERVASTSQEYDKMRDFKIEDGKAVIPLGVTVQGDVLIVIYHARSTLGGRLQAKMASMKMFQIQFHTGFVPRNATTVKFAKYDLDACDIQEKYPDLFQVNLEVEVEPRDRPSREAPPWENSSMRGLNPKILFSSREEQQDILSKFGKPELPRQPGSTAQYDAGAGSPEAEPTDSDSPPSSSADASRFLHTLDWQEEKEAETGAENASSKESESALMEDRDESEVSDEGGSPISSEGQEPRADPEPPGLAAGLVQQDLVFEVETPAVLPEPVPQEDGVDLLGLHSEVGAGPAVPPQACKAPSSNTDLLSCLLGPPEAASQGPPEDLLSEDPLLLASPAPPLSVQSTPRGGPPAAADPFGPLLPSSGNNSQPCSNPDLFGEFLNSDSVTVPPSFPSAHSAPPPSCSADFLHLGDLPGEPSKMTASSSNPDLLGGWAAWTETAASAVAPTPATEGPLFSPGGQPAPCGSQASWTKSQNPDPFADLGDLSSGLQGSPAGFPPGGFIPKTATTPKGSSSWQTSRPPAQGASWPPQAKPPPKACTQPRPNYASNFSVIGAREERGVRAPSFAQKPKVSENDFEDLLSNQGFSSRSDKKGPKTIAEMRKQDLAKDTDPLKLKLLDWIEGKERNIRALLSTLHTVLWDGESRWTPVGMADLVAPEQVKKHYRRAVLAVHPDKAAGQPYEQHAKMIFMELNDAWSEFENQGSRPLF
# [26] = biological target: Citron Rho-interacting kinase (Homo sapiens, UniProt O14578); test: Inhibition of CRIK (unknown origin)
# [27] = biological target: Death-associated protein kinase 3 (Homo sapiens, UniProt O43293); test: Inhibition of DAPK3 (unknown origin)
# [28] = biological target: T3, Homeodomain-interacting protein kinase 4 (Homo sapiens, UniProt Q8NE63); test: Inhibition of HIPK4 (unknown origin)
# T3 sequence (Q8NE63 whole entry): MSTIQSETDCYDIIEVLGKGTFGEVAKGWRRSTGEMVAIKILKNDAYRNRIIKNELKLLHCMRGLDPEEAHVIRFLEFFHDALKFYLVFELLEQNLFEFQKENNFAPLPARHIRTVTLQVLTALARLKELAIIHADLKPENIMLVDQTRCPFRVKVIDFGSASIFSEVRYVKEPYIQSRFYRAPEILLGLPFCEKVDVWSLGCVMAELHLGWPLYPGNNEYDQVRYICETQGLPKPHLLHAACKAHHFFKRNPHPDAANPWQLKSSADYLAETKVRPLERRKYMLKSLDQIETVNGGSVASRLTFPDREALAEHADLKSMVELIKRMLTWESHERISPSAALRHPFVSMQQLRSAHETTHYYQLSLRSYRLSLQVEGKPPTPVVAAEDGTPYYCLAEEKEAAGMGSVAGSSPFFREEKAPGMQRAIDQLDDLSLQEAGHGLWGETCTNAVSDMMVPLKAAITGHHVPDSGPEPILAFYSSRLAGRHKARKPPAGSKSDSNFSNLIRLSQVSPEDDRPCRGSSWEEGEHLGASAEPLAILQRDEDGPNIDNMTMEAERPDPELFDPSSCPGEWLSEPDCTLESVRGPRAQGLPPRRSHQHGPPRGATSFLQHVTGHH
# [29] = biological target: MAP kinase-interacting serine/threonine-protein kinase 2 (Homo sapiens, UniProt Q9HBH9); test: Inhibition of MNK2 (unknown origin)
# [30] = biological target: Death-associated protein kinase 1 (Homo sapiens, UniProt P53355); test: Inhibition of DAPK1 (unknown origin)
# [31] = biological target: Serine/threonine-protein kinase tousled-like 1 (Homo sapiens, UniProt Q9UKI8); test: Inhibition of TLK1 (unknown origin)
# [32] = biological target: BMP-2-inducible protein kinase (Homo sapiens, UniProt Q9NSY1); test: Inhibition of BIKE (unknown origin)
# [33] = biological target: Tyrosine-protein kinase JAK2 (Homo sapiens, UniProt O60674); test: Inhibition of JAK2 (unknown origin)
# [34] = biological target: Dual specificity mitogen-activated protein kinase kinase 1 (Homo sapiens, UniProt Q02750); test: Inhibition of MEK1/MAP2K1 (unknown origin)
# [35] = biological target: STE20/SPS1-related proline-alanine-rich protein kinase (Homo sapiens, UniProt Q9UEW8); test: Inhibition of STLK3 (unknown origin)
# [36] = biological target: Serine/threonine-protein kinase N2 (Homo sapiens, UniProt Q16513); test: Inhibition of PKN2 (unknown origin)
# [37] = biological target: Serine/threonine-protein kinase tousled-like 2 (Homo sapiens, UniProt Q86UE8); test: Inhibition of TLK2 (unknown origin)
# Chain of AP2-associated protein kinase 1 (Mus musculus, UniProt Q3UHJ0) (Q3UHJ0 whole entry): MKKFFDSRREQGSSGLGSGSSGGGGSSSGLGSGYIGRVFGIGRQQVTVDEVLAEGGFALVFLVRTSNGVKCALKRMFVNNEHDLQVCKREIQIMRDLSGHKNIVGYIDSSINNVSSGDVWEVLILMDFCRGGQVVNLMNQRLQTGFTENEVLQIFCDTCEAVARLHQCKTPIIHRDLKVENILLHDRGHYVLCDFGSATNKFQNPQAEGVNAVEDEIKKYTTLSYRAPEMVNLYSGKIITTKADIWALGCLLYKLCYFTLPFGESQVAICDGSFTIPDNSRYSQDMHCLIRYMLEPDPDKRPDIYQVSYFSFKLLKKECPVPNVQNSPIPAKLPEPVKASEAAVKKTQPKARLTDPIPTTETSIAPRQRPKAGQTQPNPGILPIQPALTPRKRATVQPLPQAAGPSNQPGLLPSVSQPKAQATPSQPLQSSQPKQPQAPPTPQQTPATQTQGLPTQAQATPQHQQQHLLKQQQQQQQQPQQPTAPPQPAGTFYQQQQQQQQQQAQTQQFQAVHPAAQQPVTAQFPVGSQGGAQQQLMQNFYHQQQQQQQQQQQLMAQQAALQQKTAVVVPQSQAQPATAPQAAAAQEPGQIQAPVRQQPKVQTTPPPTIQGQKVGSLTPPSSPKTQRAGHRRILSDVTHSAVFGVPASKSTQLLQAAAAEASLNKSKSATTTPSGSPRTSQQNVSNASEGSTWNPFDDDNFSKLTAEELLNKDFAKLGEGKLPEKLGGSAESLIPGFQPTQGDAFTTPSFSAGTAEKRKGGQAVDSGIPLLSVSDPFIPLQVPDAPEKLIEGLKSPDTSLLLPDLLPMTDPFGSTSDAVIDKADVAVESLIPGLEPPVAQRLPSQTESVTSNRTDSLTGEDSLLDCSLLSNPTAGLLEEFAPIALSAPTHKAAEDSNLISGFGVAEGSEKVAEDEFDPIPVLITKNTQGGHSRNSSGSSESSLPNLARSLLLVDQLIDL
# T1 sequence (Q2M2I8 whole entry): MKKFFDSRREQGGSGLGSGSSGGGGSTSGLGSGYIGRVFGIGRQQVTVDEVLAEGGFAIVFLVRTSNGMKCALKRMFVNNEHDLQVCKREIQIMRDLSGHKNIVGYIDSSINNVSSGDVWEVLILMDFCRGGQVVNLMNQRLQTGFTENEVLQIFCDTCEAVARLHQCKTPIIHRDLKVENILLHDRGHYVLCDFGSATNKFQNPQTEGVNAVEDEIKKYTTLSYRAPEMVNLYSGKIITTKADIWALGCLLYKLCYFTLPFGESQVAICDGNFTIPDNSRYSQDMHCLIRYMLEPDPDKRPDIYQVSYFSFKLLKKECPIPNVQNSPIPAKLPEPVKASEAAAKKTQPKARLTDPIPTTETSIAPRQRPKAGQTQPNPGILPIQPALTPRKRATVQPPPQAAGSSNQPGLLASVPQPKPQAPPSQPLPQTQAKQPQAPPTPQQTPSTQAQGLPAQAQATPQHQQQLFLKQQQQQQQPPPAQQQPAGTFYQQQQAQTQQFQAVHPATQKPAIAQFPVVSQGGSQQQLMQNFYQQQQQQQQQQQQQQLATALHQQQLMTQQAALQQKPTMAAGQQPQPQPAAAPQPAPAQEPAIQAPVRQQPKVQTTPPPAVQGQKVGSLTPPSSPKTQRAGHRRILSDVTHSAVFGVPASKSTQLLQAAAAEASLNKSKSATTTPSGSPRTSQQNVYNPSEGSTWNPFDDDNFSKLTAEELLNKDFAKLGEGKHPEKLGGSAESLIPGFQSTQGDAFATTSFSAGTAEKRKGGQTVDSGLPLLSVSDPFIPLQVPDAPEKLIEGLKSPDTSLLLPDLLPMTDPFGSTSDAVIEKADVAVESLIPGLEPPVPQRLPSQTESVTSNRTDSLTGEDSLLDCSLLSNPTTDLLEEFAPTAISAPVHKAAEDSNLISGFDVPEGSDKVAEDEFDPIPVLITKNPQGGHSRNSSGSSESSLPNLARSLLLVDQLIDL
# Chain of Cytochrome P450 3A4 (P08684 whole entry): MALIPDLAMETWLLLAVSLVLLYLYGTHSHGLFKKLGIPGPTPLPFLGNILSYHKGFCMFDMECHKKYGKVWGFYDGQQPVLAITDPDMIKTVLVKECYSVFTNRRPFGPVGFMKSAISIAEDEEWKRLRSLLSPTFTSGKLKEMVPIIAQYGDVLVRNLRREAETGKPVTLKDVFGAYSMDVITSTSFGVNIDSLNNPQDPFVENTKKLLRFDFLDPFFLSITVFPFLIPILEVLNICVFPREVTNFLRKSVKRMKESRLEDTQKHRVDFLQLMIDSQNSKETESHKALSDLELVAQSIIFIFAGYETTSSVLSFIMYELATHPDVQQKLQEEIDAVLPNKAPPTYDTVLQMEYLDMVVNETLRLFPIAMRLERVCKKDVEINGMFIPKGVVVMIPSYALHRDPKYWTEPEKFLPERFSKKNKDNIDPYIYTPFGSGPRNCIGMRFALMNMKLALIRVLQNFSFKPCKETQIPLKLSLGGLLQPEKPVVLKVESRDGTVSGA
# Chain of MAP kinase-interacting serine/threonine-protein kinase 1 (Q9BUB5 whole entry): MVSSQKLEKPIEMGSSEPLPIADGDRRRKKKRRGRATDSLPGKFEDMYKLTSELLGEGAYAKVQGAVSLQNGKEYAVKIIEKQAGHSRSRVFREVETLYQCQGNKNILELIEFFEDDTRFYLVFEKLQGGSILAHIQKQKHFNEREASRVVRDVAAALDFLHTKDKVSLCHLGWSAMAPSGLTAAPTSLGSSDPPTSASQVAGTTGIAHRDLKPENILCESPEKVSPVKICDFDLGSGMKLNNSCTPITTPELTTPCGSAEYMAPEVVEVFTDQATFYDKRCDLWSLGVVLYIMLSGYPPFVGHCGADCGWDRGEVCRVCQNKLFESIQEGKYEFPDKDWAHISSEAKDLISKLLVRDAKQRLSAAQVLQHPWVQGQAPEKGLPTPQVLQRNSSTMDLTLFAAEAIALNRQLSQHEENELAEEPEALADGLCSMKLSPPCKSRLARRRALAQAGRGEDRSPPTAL
# Chain of Citron Rho-interacting kinase (O14578 whole entry): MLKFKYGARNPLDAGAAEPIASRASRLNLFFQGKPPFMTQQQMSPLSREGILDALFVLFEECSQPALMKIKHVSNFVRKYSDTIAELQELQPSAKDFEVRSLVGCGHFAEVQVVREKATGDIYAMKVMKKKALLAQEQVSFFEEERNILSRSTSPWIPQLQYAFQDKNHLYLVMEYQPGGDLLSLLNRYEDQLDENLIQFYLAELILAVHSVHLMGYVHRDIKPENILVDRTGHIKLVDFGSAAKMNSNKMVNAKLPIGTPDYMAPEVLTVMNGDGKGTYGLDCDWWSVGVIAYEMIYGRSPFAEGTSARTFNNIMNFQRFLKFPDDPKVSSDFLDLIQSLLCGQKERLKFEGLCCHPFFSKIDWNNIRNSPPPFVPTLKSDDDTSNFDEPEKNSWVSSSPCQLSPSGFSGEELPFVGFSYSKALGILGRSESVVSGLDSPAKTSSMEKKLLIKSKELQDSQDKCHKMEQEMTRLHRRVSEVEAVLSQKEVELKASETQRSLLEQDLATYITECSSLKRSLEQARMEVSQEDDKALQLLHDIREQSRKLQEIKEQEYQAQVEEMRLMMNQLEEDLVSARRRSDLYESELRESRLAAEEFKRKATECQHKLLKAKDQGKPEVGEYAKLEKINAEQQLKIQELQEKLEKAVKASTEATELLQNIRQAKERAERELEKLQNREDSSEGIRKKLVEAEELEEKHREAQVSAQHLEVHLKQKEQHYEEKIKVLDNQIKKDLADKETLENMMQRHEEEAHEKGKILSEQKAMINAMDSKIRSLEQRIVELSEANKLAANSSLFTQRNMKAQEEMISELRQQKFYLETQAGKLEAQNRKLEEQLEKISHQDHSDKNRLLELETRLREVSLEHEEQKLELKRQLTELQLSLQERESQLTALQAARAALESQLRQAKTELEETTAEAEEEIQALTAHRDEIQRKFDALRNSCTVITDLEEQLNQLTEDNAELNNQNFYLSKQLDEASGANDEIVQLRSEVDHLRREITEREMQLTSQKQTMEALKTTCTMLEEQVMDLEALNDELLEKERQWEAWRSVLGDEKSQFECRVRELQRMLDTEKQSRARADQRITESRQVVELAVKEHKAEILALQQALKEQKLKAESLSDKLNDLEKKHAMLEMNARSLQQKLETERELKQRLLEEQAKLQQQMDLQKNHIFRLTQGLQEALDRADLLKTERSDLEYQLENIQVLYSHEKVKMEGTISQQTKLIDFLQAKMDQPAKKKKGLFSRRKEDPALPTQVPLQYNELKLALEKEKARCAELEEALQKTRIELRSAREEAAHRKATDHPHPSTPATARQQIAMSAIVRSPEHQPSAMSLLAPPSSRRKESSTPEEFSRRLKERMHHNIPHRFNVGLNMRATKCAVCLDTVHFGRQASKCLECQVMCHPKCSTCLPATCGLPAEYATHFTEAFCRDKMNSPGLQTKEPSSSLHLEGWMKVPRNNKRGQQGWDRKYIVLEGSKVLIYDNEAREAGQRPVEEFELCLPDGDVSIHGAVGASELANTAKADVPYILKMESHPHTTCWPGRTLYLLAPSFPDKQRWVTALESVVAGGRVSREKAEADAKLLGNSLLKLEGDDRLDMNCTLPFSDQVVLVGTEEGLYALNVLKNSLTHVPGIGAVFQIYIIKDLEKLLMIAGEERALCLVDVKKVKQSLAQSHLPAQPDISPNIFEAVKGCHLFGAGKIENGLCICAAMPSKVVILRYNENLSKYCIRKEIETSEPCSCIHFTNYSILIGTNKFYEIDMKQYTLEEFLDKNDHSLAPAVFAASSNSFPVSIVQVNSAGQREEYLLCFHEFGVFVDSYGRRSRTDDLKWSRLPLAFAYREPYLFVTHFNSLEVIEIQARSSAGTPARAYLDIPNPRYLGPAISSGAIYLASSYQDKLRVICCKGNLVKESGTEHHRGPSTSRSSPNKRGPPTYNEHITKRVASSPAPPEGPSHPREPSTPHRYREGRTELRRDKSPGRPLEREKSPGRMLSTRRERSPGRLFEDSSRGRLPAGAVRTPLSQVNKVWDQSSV
"remaining at 10 min, 0.5 µM [1]",pKi [3],pIC50 [8],pIC50 (Cytochrome P450 3A4),pIC50 [12],"remaining at 10 min, 0.5 µM [16]","remaining at 10 min, 0.5 µM [19]",pIC50 [22],pIC50 [24],pIC50 [26],Compound,Activity [21],also measured
90%,9.28,8.59,5.05,8.80,80%,79%,–,–,–,CC(=O)Nc1cc(-c2ccc(OC[C@@H](N)CC(C)C)c(F)c2)ccn1,–,concentration at 5.5 h [2]: 190 nM; Activity (Rattus norvegicus [4]): 56%; concentration at 5.5 h [5]: 150 nM; Activity (Rattus norvegicus [6]): 65%; Kp at 2 h [7]: 1.5; concentration at 5.5 h [9]: 320 nM; Kp at 5.5 h [10]: 1.2; Kp at 5.5 h [11]: 1; Kp at 5.5 h [13]: 0.8; Kp at 5.5 h [14]: 1; concentration at 5.5 h [15]: 270 nM; concentration at 5.5 h [17]: 190 nM; concentration at 5.5 h [18]: 270 nM
100%,8.85,8.77,4.89,7.92,100%,99%,6.22,5.89,7.22,COC(=O)Nc1cc(-c2cc(C)c(OC[C@@](C)(N)CC(C)C)cn2)ccn1,38%,pIC50 [20]: 6.11; pIC50 [23]: 6.16; pIC50 [25]: 5.74
93%,9.77,9.30,< 4.70,8.92,99%,72%,6.19,6.92,7.05,COC(=O)Nc1cc(-c2ccc(OC[C@@](C)(N)CC(C)C)c(Cl)n2)ccn1,74%,pIC50 [27]: 5.96; pIC50 [28]: 5.96; pIC50 [29]: 5.92; pIC50 [30]: 6.09; pIC50 [31]: 5.92; pIC50 [32]: 7.52; pIC50 [33]: 5.80; pIC50 [34]: 5.92; pIC50 [35]: 5.85; pIC50 [36]: 6.85; pIC50 [37]: 5.85
